Results published in ChEMBL document CHEMBL1159054, “Cyclic diarylheptanoids as Na+-glucose cotransporter (SGLT) inhibitors from Acer nikoense” (Bioorg Med Chem Lett, 2010).

Key:
[1] = molecular target: T1, Sodium/glucose cotransporter 1 (Homo sapiens) (UniProt P13866); assay: Inhibition of human SGLT1 expressed in COS1 cells assessed as [14C]methyl-alpha-D-glucopyranoside uptake at 50 uM; type: cell-based; details: COS-1
T1 sequence (whole entry): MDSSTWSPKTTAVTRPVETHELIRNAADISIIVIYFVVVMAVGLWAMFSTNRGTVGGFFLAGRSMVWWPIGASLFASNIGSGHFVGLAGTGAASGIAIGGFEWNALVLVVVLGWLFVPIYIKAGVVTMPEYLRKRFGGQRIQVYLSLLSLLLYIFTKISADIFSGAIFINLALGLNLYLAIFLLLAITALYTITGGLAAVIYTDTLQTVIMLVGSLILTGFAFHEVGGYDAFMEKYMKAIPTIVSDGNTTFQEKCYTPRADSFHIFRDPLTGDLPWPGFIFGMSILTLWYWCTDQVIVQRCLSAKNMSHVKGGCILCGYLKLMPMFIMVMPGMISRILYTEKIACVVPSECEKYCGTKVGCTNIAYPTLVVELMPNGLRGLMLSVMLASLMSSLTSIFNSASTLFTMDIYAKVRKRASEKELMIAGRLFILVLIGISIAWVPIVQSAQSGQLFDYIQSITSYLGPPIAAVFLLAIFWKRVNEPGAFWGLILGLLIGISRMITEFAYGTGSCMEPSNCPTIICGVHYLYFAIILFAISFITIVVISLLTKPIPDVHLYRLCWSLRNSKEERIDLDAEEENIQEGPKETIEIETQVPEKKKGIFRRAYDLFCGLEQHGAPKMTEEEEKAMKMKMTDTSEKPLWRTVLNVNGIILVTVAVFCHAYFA

[2] = molecular target: T2, Sodium/glucose cotransporter 2 (Homo sapiens) (UniProt P31639); assay: Inhibition of human SGLT2 expressed in COS1 cells assessed as [14C]methyl-alpha-D-glucopyranoside uptake at 50 uM; type: cell-based; details: COS-1
T2 sequence (whole entry): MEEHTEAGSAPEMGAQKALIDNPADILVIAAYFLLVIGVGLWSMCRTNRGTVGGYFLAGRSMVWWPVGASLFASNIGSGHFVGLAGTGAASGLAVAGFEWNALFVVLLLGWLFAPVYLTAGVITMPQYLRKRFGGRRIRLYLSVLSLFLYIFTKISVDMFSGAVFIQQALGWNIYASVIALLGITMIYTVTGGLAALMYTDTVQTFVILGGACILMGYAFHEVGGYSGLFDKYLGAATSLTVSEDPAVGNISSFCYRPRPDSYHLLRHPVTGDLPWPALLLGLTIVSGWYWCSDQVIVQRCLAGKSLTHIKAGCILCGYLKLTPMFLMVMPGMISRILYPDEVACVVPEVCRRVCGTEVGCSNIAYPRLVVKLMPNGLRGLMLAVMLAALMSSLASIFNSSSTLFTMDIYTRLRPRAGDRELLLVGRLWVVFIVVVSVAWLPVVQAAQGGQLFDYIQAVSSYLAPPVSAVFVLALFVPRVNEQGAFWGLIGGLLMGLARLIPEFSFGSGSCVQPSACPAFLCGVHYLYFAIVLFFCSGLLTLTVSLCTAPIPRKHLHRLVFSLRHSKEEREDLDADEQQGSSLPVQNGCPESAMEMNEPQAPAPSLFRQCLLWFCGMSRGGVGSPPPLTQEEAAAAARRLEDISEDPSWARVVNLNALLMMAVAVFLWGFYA

| inhibition [1] [%] | inhibition [2] [%] | SMILES |
| --- | --- | --- |
| 68.8 | 67.5 | CC(=O)Oc1ccc2cc1Oc1ccc(cc1)CC[C@@H](OC(C)=O)CCCC2 |
| 44.6 | 53.3 | COc1ccc2cc1Oc1ccc(cc1)CCC(=O)CCCC2 |
| 44.9 | 67.8 | O=C1CCCCc2ccc(O)c(c2)Oc2ccc(cc2)CC1 |
| 18.3 | 15 | OC[C@H]1O[C@H](Oc2ccc3cc2Oc2ccc(cc2)CC[C@@H](O)CCCC3)[C@H](O)[C@@H](O)[C@@H]1O |
| 94.2 | 54.2 | Oc1ccc2cc1Oc1ccc(cc1)CCCC[C@H](O)CC2 |
| 13.5 | 19.3 | CC(=O)Oc1ccc2cc1Oc1ccc(cc1)CCC(=O)CCCC2 |
| 67.8 | 29.5 | COc1ccc2cc1Oc1ccc(cc1)CC[C@@H](O)CCCC2 |
| 37.7 | 65.4 | COc1ccc2cc1Oc1ccc(cc1)CCCCC(=O)CC2 |
| 77.9 | 62.4 | COc1ccc2cc1Oc1ccc(cc1)CCCCC(O)CC2 (stereo not drawn) |
| 92.7 | 33.9 | Oc1ccc2cc1Oc1ccc(cc1)CC[C@H](O)CCCC2 |
| 31.4 | 45.3 | O[C@H]1CCCCc2ccc(OCc3ccccc3)c(c2)Oc2ccc(cc2)CC1 |

Second part, the compound before the results:

| SMILES | inhibition [1] [%] | inhibition [2] [%] |
| --- | --- | --- |
| O=C1CCc2ccc(cc2)Oc2cc(ccc2O)CCCCN1 | 46.5 | 76.9 |
| O=C(Oc1ccc2cc1Oc1ccc(cc1)CC[C@@H](OC(=O)c1ccc(Cl)cc1)CCCC2)c1ccc(Cl)cc1 | 15.7 | 16.8 |
| O=C1CCCCc2ccc(OCc3ccccc3)c(c2)Oc2ccc(cc2)CC1 | 3.9 | 19.8 |
| O=C1CCCCc2ccc(OC(=O)c3ccccc3)c(c2)Oc2ccc(cc2)CC1 | 1.4 | 45.2 |
| Oc1ccc2cc1Oc1ccc(cc1)C/C=C/CCCC2 | 73.7 | 15.3 |
| O=C(Oc1ccc2cc1Oc1ccc(cc1)CC[C@@H](OC(=O)c1ccccc1)CCCC2)c1ccccc1 | -1.7 | -9.7 |
| Oc1ccc2cc1Oc1ccc(cc1)CCCCCCC2 | 96.3 | 77.4 |
| CC(C)C(=O)Oc1ccc2cc1Oc1ccc(cc1)CC[C@@H](OC(=O)C(C)C)CCCC2 | 20.6 | 34.3 |
